According to EP0391462A1, “Synergistic compositions containing ketanserin” (JANSSEN PHARMACEUTICA N.V., priority 1989, dated 1990):

Tests used:
[1] = system: patients with moderate, uncomplicated hypertension; settings: difference between treated and untreated patients, mean ± standard error; end of treatment period, 1-2 hours after last dose, seated; ketanserin 40 mg b.i.d., captopril 50 mg b.i.d.
Experimental: The effect of a combination of the compound ketanserin (I) and an ACE inhibitor, captopril, on the lowering of blood pressure was investigated in a double-blind randomized cross-over study according to a latin square design.
Adult (≧18 years) patients with moderate, uncomplicated hypertension (105 mmHg ≦ DBP ≦ 115 mmHg at the end of a 1 month placebo wash-out period) were randomly assigned to: - placebo (1 tab q.i.d.); - placebo (1 tab b.i.d.) + ketanserin (1 tab 40 mg b.i.d.); - placebo (1 tab b.i.d.) + captopril (1 tab 50 mg b.i.d.); - ketanserin (1 tab 40 mg b.i.d.) + captopril (1 tab 50 mg b.i.d.).
At the end of each treatment period (1-2 hours after the last dose), blood pressure (by a mercury sphygmomanometer) and heart rate (by the palpatory method over a 30˝ period) of patients seated for 10′ were recorded by the same investigator during 3 measurements at 2′ intervals.

[2] = system: patients with mild to moderate, uncomplicated, essential hypertension; type: in vivo; settings: absolute value, mean ± standard error; end of 3 month monotherapy (ketanserin 2 weeks 20 mg b.i.d. then 10 weeks 40 mg b.i.d., 9 pts; enalapril 12 weeks 10 mg b.i.d., 7 pts)
Experimental: The effect of a combination of the compound ketanserin (I) and enalapril on the lowering of blood pressure was investigated in a randomized double-blind parallel group study. Elderly (≧ 50 years) patients with mild to moderate, uncomplicated, essential hypertension (95 mm Hg ≦ DBP ≦ 105 mm Hg at the end of a 3 month period on double blind monotherapy) received ketanserin (1 tab 40 mg b.i.d.) + enalapril (1 tab 10 mg b.i.d.). […] Bloodpressure (SBP, DBP) and heart rate (HR) (mean values ± standard error) are in mm Hg and b.p.m.

SMILES	difference of diastolic blood pressure (DBP) [1]	difference of systolic blood pressure (SBP) [1]	DBP, End Monotherapy Phase [2]	SBP, End Monotherapy Phase [2]
O=C(c1ccc(F)cc1)C1CCN(CCn2c(=O)[nH]c3ccccc3c2=O)CC1 [Ketanserin, 3-[2-[4-(4-fluorobenzoyl)-1-piperidinyl]ethyl]-2,4(1H,3H)-quinazolinedione]	-7.92±1.3 mmHg	-8.33±2.33 mmHg	102.22±5.65 mm Hg	148.88±13.64 mm Hg
CCOC(=O)[C@H](CCc1ccccc1)N[C@@H](C)C(=O)N1CCC[C@H]1C(=O)O [Enalapril, enalapril]	–	–	101.42±10.07 mm Hg	160.0±5.77 mm Hg
C[C@H](CS)C(=O)N1CCC[C@H]1C(=O)O [Captopril, captopril]	-8.75±1.3 mmHg	-8.75±1.96 mmHg	–	–
